Tests used:
[1] = test system: U138-MG human glioma cell; experiment: Cell proliferation analysis (MTT); assay type: cell-based; settings: 10 µM, two days, MTT; for inhibition at 10 µM / activity at 10 µM: Homo sapiens, 48 h
Method: (§1) U87-MG and U138-MG human glioma cell, were incubated with 10% fetal bovine serum (FBS) (Gibco, 10500-064), 1% L-glutamine (Gibco, 25030-024), in a humidified incubator with 5% CO2 at 37 °C. The cells were contained in DMEM High Glucose (Gibco, 41966-029) supplemented with 1% penicillin-streptomycin (P/S) (Gibco 15140-122) solution. The cytotoxic effects of the target compounds on U87-MG and U138-MG cell lines were assessed using the MTT (Thiazolyl Blue Tetrazolium Bromide) method. 7×10^3 cells were seeded into a 96-well plate in 100 µl DMEM High Glucose 10% FBS and 1% P/S. 24 hours after cell incubation, each target compound was added at a dose of 10 µM and the drug treatment was carried out for two days. After the incubation period, 10 µL of MTT solution was added to each well (5 mg/ml in PBS). After 2 hours, MTT solutions were removed from the wells. Then, 100 µl DMSO was added, and mixed to dissolve the formazan crystals. Cell proliferation was analysed by measuring the absorbance of dissolved formazan at a wavelength of 570 nm.
(§2) IC50 values were determined using the same method as above wherein the cells were treated with the target compounds at different doses.

U87-MG human glioma cell = experiment: Cell proliferation analysis (MTT); assay type: cell-based; settings: for inhibition at 10 µM / activity at 10 µM: Homo sapiens, U-87 MG, 48 h; for top 5 target compounds whose treatment resulted in the lowest proliferation: ranking
Method: as §1, §2

Compound	Cell Proliferation (%) [1] [%]	inhibition at 10 µM [1] [%]	Cell Proliferation (%) (U87-MG human glioma cell; 10 µM, two days, MTT)	inhibition at 10 µM (U87-MG human glioma cell; 10 µM, two days, MTT) [%]	activity at 10 µM [1] [%]	activity at 10 µM (U87-MG human glioma cell; 10 µM, two days, MTT) [%]	top 5 target compounds whose treatment resulted in the lowest proliferation (U87-MG human glioma cell)	Inhibition (%) [1] [%]	Inhibition (%) (U87-MG human glioma cell; 10 µM, two days, MTT)
O=C1CCc2cc(OCc3cc(-c4ccc(Cl)cc4)no3)ccc2N1 [TR-G084, 6-((3-(4-chlorophenyl)isoxazol-5-yl)methxy)-3,4-dihydroquinolin-2(1H)-one]	71	30	65	35	–	–	–	–	–
O=C1CCc2cc(OCCOCc3ccccc3)ccc2N1 [TR-G001, 6-(2-(benzyloxy)ethoxy)-3,4-dihydroquinolin-2(1H)-one]	88	12	78	22	–	–	–	–	–
O=C(COc1ccc2c(c1)CCC(=O)N2)Nc1ccc([N+](=O)[O-])cn1 [TR-G122, N-(5-nitropyridin-2-yl)-2-((2-oxo-1,2,3,4-tetrahydroquinolin-6-yl)oxy)acetamide]	–	11	–	18	90	82	–	–	–
O=C1CCc2cc(OC(=O)N3CCCC3)ccc2N1 [TR-G061, 2-oxo-1,2,3,4-tetrahydroquinolin-6-yl pyrrolidine-1-carboxylate]	–	8	–	16	92	84	–	–	–
O=C1CCc2cc(OCC3CC(c4ccc(F)cc4)=NO3)ccc2N1 (stereo not shown) [TR-G051, 6-((3-(4-fluorophenyl)-4,5-dihydroisoxazol-5-yl)methoxy)-3,4-dihydroquinolin-2(1H)-one]	–	33	–	21	67	79	–	–	–
CC(=O)CCn1cc(COc2ccc3c(c2)CCC(=O)N3)nn1 [TR-G147, 6-((1-(3-oxobutyl)-1H-1,2,3-triazol-4-yl)methoxy)-3,4-dihydroquinolin-2(1H)-one]	–	-22	–	11	122	89	–	–	–
O=C1CCc2cc(OC(=O)c3cccc4ccccc34)ccc2N1 [TR-G011, 2-oxo-1,2,3,4-tetrahydroquinolin-6-yl 1-naphthoate]	–	40	–	24	60	76	–	–	–
O=C1CCc2cc(OCC3CC3)ccc2N1 [TR-G010, 6-(cyclopropylmethoxy)-3,4-dihydroquinolin-2(1H)-one]	–	26	–	26	74	74	–	–	–
O=C1CCc2cc(OC(=O)Nc3ccccc3Cl)ccc2N1 [TR-G096, 2-oxo-1,2,3,4-tetrahydroquinolin-6-yl (2-chlorophenyl)carbamate]	–	30	–	25	70	75	–	–	–
C=CCN1C(=O)CCc2cc(OCCCCc3nnnn3C3CCCCC3)ccc21 [TR-G103, 1-allyl-6-(4-(1-cyclohexyl-1H-tetrazol-5-yl)butoxy)-3,4-dihydroquinolin-2(1H)-one]	–	38	–	55	63	45	top 5	–	–
CN1CCN(c2ccc(NC(=O)COc3ccc4c(c3)CCC(=O)N4)cc2)CC1 [TR-G043, N-(4-(4-methylpiperazin-1-yl)phenyl)-2-((2-oxo-1,2,3,4-tetrahydroquinolin-6-yl)oxy)acetamide]	–	26	–	27	74	73	–	–	–
Nc1ncc(/C=N/NC(=O)COc2ccc3c(c2)CCC(=O)N3)cn1 [TR-G076, (E)-N'-((2-aminopyrimidin-5-yl)methylene)-2-((2-oxo-1,2,3,4-tetrahydroquinolin-6-yl)oxy)acetohydrazide]	–	8	–	3	92	97	–	–	–
CC(=O)c1ccc(-n2cc(COc3ccc4c(c3)CCC(=O)N4)nn2)cc1 [TR-G093, 6-((1-(4-acetylphenyl)-1H-1,2,3-triazol-4-yl)methoxy)-3,4-dihydroquinolin-2(1H)-one]	–	38	–	45	63	55	–	–	–
O=C1CCc2cc(OCCCBr)ccc2N1 [TR-G074, 6-(3-bromopropoxy)-3,4-dihydroquinolin-2(1H)-one]	81	19	85	15	–	–	–	–	–
O=C1CCc2cc(OCc3cn(CCOCc4ccccc4)nn3)ccc2N1 [TR-G080, 6-((1-(2-(benzyloxy)ethyl)-1H-1,2,3-triazol-4-yl)methoxy)-3,4-dihydroquinolin-2(1H)-one]	–	29	–	21	71	79	–	–	–
CCN(C)C(=O)Oc1ccc2c(c1)CCC(=O)N2 [TR-G037, 2-oxo-1,2,3,4-tetrahydroquinolin-6-yl ethyl(methyl)carbamate]	–	35	–	9	65	91	–	–	–
O=C1CCc2cc(OC(=O)Nc3ccccc3C(F)(F)F)ccc2N1 [TR-G137, 2-oxo-1,2,3,4-tetrahydroquinolin-6-yl (2-(trifluoromethyl)phenyl)carbamate]	–	40	–	27	60	73	–	–	–
CCCN1C(=O)CCc2cc(OCCCCc3nnnn3C3CCCCC3)ccc21 [TR-G105, 6-(4-(1-cyclohexyl-1H-tetrazol-5-yl)butoxy)-1-propyl-3,4-dihydroquinolin-2(1H)-one]	–	28	–	52	73	48	–	–	–
O=C1CCc2cc(OCCCCc3nnnn3C3CCCCC3)ccc2N1Cc1ccccc1 [TR-G110, 1-benzyl-6-(4-(1-cyclohexyl-1H-tetrazol-5-yl)butoxy)-3,4-dihydroquinolin-2(1H)-one]	–	31	–	42	69	58	–	–	–
O=C1CCc2cc(OC(=O)Nc3ccc(F)cc3)ccc2N1 [TR-G140, 2-oxo-1,2,3,4-tetrahydroquinolin-6-yl (4-fluorophenyl)carbamate]	–	9	–	20	91	80	–	–	–
O=C1CCc2cc(OCCCCCCOC3CCCCO3)ccc2N1 (stereo not shown) [TR-G031, 6-((6-((tetrahydro-2H-pyran-2-yl)oxy)hexyl)oxy)-3,4-dihydroquinolin-2(1H)-one]	–	20	–	28	80	72	–	–	–
NC(=O)COCCOc1ccc2c(c1)CCC(=O)N2 [TR-G126, 2-(2-((2-oxo-1,2,3,4-tetrahydroquinolin-6-yl)oxy)ethoxy)acetamide]	–	3	–	30	97	70	–	–	–
CCCCCCn1cc(COc2ccc3c(c2)CCC(=O)N3)nn1 [TR-G125, 6-((1-hexyl-1H-1,2,3-triazol-4-yl)methoxy)-3,4-dihydroquinolin-2(1H)-one]	–	18	–	36	82	64	–	–	–
O=C1CCc2cc(OC(=O)Nc3cccc4ccccc34)ccc2N1 [TR-G135, 2-oxo-1,2,3,4-tetrahydroquinolin-6-yl naphthalene-1-ylcarbamate]	–	20	–	29	80	71	–	–	–
C=Cc1ccc(CN2C(=O)CCc3cc(OCCCCc4nnnn4C4CCCCC4)ccc32)cc1 [TR-G107, 6-(4-(1-cyclohexyl-1H-tetrazol-5-yl)butoxy)-1-(4-vinylbenzyl)-3,4-dihydroquinolin-2(1H)-one]	–	-3	–	53	103	47	top 5	–	–
O=C1CCc2cc(OC(=O)Nc3ccccc3)ccc2N1 [TR-G131, 2-oxo-1,2,3,4-tetrahydroquinolin-6-yl phenylcarbamate]	–	46	–	21	54	79	–	–	–
CC(C)CCn1cc(COc2ccc3c(c2)CCC(=O)N3)nn1 [TR-G052, 6-((1-isopentyl-1H-1,2,3-triazol-4-yl)methoxy)-3,4-dihydroquinolin-2(1H)-one]	–	48	–	15	52	85	–	–	–
2-oxo-1,2,3,4-tetrahydroquinolin-6-yl diphenylcarbamate [TR-G020]	80	–	72	–	–	–	–	20	29
COc1ccc(/C=N/NC(=O)COc2ccc3c(c2)CCC(=O)N3)cc1 [TR-G026, (E)-N'-(4-methoxybenzylidene)-2-((2-oxo-1,2,3,4-tetrahydroquinolin-6-yl)oxy)acetohydrazide]	–	10	–	8	90	92	–	–	–
